Measurements published in patent US20190350898A1, “METHODS AND COMPOSITIONS FOR TREATMENT OF ALZHEIMER'S DISEASE” (Neurotrope Bioscience, Inc., priority 2018, published 2019).

Columns and labels:
[1] = test system: patients with advanced Alzheimer's disease; assay: ADCS-ADL-SIV (ADCS-ADL Sev) secondary efficacy endpoint, same trial; assay type: in vivo, human; conditions: for ADCS-ADL LS Mean difference between 20 μg group and placebo: week 13
Procedure: Adults aged 55-85 with cognitive deficits present for at least 2 years, MMSE-2 of 4-15, inclusive, and a diagnosis of Alzheimer's dementia were randomly assigned to receive blinded intravenous infusions of bryostatin 24 μg or matching placebo at weeks 0 and 1. The 24 μg and 48 μg doses during the first two weeks of the 20 and 40 μg protocols respectively were considered to be “loading” doses thought to be beneficial from prior experience with Compassionate Use trial patients. Nelson et al., Alzheimers Dis. 2017 58: 521-535. In one arm, the two 24 μg doses were followed by 20 μg doses at weeks 5, 7, 9 and 11 with the Severe Impairment Battery (SIB) measured at baseline and weeks 5, 9, 13, and 15. In a second arm, the two 48 μg doses at weeks 0 and 1 were followed by 40 μg doses at weeks 5, 7, 9, and 11 with the SIB measured at baseline and weeks 5, 9, 13, and 15. The subjects were stratified by MMSE-2 in two strata: Stratum 1 (4-9) and Stratum 2 (10-15). The first primary endpoint was safety and tolerability, assessed by treatment emergent adverse events (TEAEs) with a sample size of 150 subjects randomized 1:1:1. Although efficacy was the secondary measure, the primary efficacy endpoint was SIB improvement at week 13 evaluated using a mixed model for repeated measures. A secondary efficacy endpoint was ADCS-ADL Sev. The primary safety population included all subjects who received at least 1 dose of study drug, and efficacy was evaluated in a modified intent to treat (mITT) population that received at least 1 dose of study drug and had at least one treatment evaluation. Efficacy was evaluated both as a primary end-point in the modified intent-to-treat (mITT) population and also as a primary end point in a Completers population that included all patients that completed the entire protocols as described above.
There was no evidence of treatment by efficacy of acetyl-cholinesterase-inhibitor (AChEI) use interaction. For SIB Total, the two sided p-value for the interaction between treatment and AChEI use was 0.8244 and the two sided p-value for the interaction between treatment, AChEI use and time was 0.9223. Similar results were seen when investigating the effect of AChEI use on treatment effect for ADCS-ADL with p-values of 0.5137 and 0.6256 (two sided), respectively. At week 13, the LS Mean difference between 20 μg group and placebo in SIB Total for AChEI non-users was 2.00 and users was 2.09, and in ADCS-ADL for AChEI non-users was −0.67 and users was 1.99.

[2] = test system: patients with advanced Alzheimer's disease; assay: Safety and tolerability, treatment emergent adverse events (TEAEs), same trial; assay type: in vivo, human; conditions: 40 μg group
Procedure: In a double-blind, randomized, placebo-controlled trial, bryostatin was administered by intravenous infusion (˜45 minutes) to patients with advanced Alzheimer's disease for 12 weeks at doses of 20 or 40 μg. Randomization was stratified at baseline by severe (MMSE-2, 4-9) and moderate (MMSE-2, 10-15) dementia, wherein MMSE-2 refers to Mini-Mental State Examination, version 2. The MMSE or Folstein test is a 30-point questionnaire that is used extensively in clinical and research settings to measure cognitive impairment. Low scores indicate greater impairment. […]
Adults aged 55-85 with cognitive deficits present for at least 2 years, MMSE-2 of 4-15, inclusive, and a diagnosis of Alzheimer's dementia were randomly assigned to receive blinded intravenous infusions of bryostatin 24 μg or matching placebo at weeks 0 and 1. […] In one arm, the two 24 μg doses were followed by 20 μg doses at weeks 5, 7, 9 and 11 with the Severe Impairment Battery (SIB) measured at baseline and weeks 5, 9, 13, and 15. In a second arm, the two 48 μg doses at weeks 0 and 1 were followed by 40 μg doses at weeks 5, 7, 9, and 11 with the SIB measured at baseline and weeks 5, 9, 13, and 15. […] The first primary endpoint was safety and tolerability, assessed by treatment emergent adverse events (TEAEs) with a sample size of 150 subjects randomized 1:1:1. […]

CCC/C=C/C=C/C(=O)O[C@H]1/C(=C/C(=O)OC)C[C@H]2C[C@H]([C@@H](C)O)OC(=O)C[C@H](O)C[C@@H]3C[C@H](OC(C)=O)C(C)(C)[C@](O)(C[C@@H]4C/C(=C/C(=O)OC)C[C@H](/C=C/C(C)(C)[C@]1(O)O2)O4)O3 [Bryostatin, bryostatin-1]
ADCS-ADL efficacy ([1]; 20 μg dose): significant
ADCS-ADL difference from placebo ([1]; 20 μg dose, completers group): 1.6
ADCS-ADL difference from placebo ([1]; 20 μg dose, mITT group): 1.4
ADCS-ADL, subgroups with and without memantine ([1]; memantine (Namenda) as background SOC therapy or not): not significantly different above placebo
ADCS-ADL LS Mean difference between 20 μg group and placebo ([1]; AChEI non-users): −0.67
ADCS-ADL LS Mean difference between 20 μg group and placebo ([1]; AChEI users): 1.99
Safety results (adverse events) [2]: more adverse events
